Results as given in patent publication US4489091A, “Antilipemic and anti-inflammatory compositions containing sulfonate derivatives” (Taiho Pharmaceutical Company Limited, priority 1980, dated 1984).

Experiments:
triglycerides = test: Antilipemic effect: percent triglycerides inhibition in plasma of rats given an olive oil-cholesterol mixture; assay type: in vivo, male Wistar rats; settings: oral 100 mg/kg, plasma 2 hours after dosing, Wistar rat; read-out: Anti-lipemic effect, TG (percent triglycerides inhibition)
Method in brief: (§1)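 Male Wistar rats, seven weeks old, 200 to 220 g, 5 per group, dosed orally at 100 or 200 mg/kg in olive oil-cholesterol mixture (15% cholesterol) at 10 ml/kg. Plasma triglycerides measured at 2 hours, total cholesterol at 8 hours, by enzymatic kits; percent inhibition calculated relative to vehicle control and untreated normal groups.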

Acute toxicity = settings: rat, in vivo, po
Source text: Six-week-old male Wistar rats weighing 180 to 200 g are used, 5 rats in each group. Each compound of the invention is suspended in a 30% aqueous solution of polyethylene glycol 6000 and orally given to the rat at the dosage shown in Table 2. The animals are checked for poisoning, body weight and survival to determine the LD50 value.

esterase = test: Esterase inhibiting activity; assay type: biochemical; settings: rat liver microsome esterase, methyl butyrate substrate, pH 8.0, 37° C., 60 minutes; read-out: IC50 for esterases
Procedure: A 10 micromole quantity of methyl butyrate in a 50% ethanol solution is added as a substrate to a specified amount of buffer solution containing 0.1 mole of trishydrochloric acid (pH 8.0). To the mixture is further added a 50% ethanol solution of the compound of the invention, immediately followed by addition of an esterase solution prepared from a purified microsome fraction of the liver of a rat (adjusted to hydrolyze 9 micromoles of methyl butyrate at 37° C. in one hour) as an enzyme solution. The mixture is reacted at 37° C. for 60 minutes.
After the reaction, alkaline hydroxylamine is added to the mixture to form a hydroxamic acid derivative of methyl butyrate, and a ferric salt is added to the derivative. The resulting red color is colorimetrically determined (at a wavelength of 540 nm) to determine the amount of remaining methyl butyrate. The esterase inhibiting ratios of the present compound at least at three concentrations are plotted as ordinate, and the logarithms of the concentrations as abscissa to obtain a line, which gives the 50% inhibition concentration (IC50).

chymotripsin = chymotripsin (Bos taurus, UniProt P00766); test: Chymotripsin inhibiting activity; assay type: biochemical; settings: 0.5 h; compound 1×10^-4 mole, ATEE substrate, pH 8.0, 37° C.; read-out: Percent chymotripsin inhibition
Procedure: Chymotripsin (0.1 unit) serving as an enzyme solution is added to a specified quantity of buffer solution containing 0.1 mole of trishydrochloric acid (pH 8.0). To the mixture is further added a 50% ethanol solution of the compound of the invention so that the resulting mixture contains the compound in a concentration of 1×10^-4 mole. The mixture is reacted at 37° C. for 20 minutes.
On completion of the reaction, 10 micromoles of N-acetyl-L-thyrosine ethyl ester (ATEE) serving as a substrate is added to the mixture, and the resulting mixture is reacted at 37° C. for 30 minutes.
After the completion of the reaction, the amount of remaining ATEE is determined by the same hydroxamic acid method as above. The percent chymotripsin inhibition is given by [formula] wherein A is the amount of hydrolyzed esters in the reaction system not containing the compound of the invention, and B is the amount of hydrolyzed esters in the reaction system containing the present compound.

cholesterol = test: Antilipemic effect: percent total cholesterol inhibition in plasma of rats given an olive oil-cholesterol mixture; assay type: in vivo, male Wistar rats; settings: oral 100 mg/kg, plasma 8 hours after dosing, Wistar rat; read-out: Anti-lipemic effect, CS (percent cholesterol inhibition)
Method in brief: as §1

[1] = reported in the literature; cited from earlier work

SMILES	inhibition in vivo at 100 mg/kg (triglycerides) [%]	LD50 (Acute toxicity) [mg/kg]	IC50 (esterase) [nM]	inhibition at 100 µM (chymotripsin) [%]	inhibition in vivo at 100 mg/kg (cholesterol) [%]	Side effects [1]
CCCC(CC)C(=O)COS(=O)(=O)c1c(C)cc(C)cc1C (stereo not drawn) [Compound 151]	83	> 3000	32000	8	77	–
CCC(C)CC(=O)COS(=O)(=O)c1c(C)cc(C)cc1C (stereo not drawn) [Compound 153]	82	> 4000	640	9	83	–
CCCC(C)CC(=O)COS(=O)(=O)c1c(C)cc(C)cc1C (stereo not drawn) [Compound 158]	74	> 4000	400	17	70	–
CCCCCC(C)C(=O)COS(=O)(=O)c1c(C)cc(C)cc1C (stereo not drawn) [Compound 162]	75	> 4000	2000	32	77	–
O=C(O)c1cccnc1 [nicotinic acid]	–	–	–	–	–	pruritus and cutaneous flushing due to vasodilatation, gastrointestinal disorders, abnormalities in liver function and glucose intolerance
